According to patent US9968089B2, “Microbicidal composition” (Dow Global Technologies LLC, priority 2013, dated 2018):
Like-named read-outs stand apart in the source and are kept apart here. One block for each compound: values may come before it.

Legend:
Assay in all cases: MIC and synergy index test in 96 well microtiter plates
Assay type in all cases: cell-based
[1] = system: Staphylococcus aureus ATCC #6538; conditions: ATCC6538, 24 h
Description: (§1) Surfactants and biocides were evaluated for synergy by determining the synergy index (S.I.) of the combination. Synergy index was calculated based on minimum inhibitory concentrations (MIC) of two antimicrobial compounds (A and B) alone and in combinations. The tests organisms were Gram negative bacteria (Pseudomonas aeruginosa ATCC #15442), Gram positive bacteria (Staphylococcus aureus ATCC #6538), yeast (Candida albicans ATCC#10203) and mold (Aspergillus niger ATCC#16404). Contact time for the bacteria was 24 and 48 hours, yeast was 48 and 72 hrs, and 3 and 7 days for mold. The test was carried out in 96 well microtiter plates. • Surf. A R^1O(CH2CH(CH3)O)5(CH2CH2O)9H, where R^1 is 2-ethylhexyl • Surf. D R^2O(CH2CH(CH3)O)3(CH2CH2O)5H • Surf. E R^2O(CH2CH(CH3)O)3(CH2CH2O)7H • In Surf. D and Surf. E, R^2 is a mixture of C8-C14 linear alkyl groups (70% C8-C10 linear alkyl and 30% C12-C14 linear alkyl)
(§2) The pH of the Triptic soy broth was 7.3 and the Potato dextrose broth was 5.1.
(§3) SI is calculated as follows: Ca/CA+Cb/CB=Synergy Index(“SI”)
(§4) Wherein: • CA=concentration of compound A in ppm, acting alone, which produced an end point (MIC of Compound A). • Ca=concentration of compound A in ppm, in the mixture, which produced an end point. • CB=concentration of compound B in ppm, acting alone, which produced an end point (MIC of Compound B). • Cb=concentration of compound B in ppm, in the mixture, which produced an end point.
(§5) When the sum of Ca/CA and Cb/CB is greater than one, antagonism is indicated.

[2] = system: Candida albicans ATCC#10203; conditions: PDB
Description: as §1, §2, §3, §4, §5

[3] = system: Aspergillus niger ATCC#16404; conditions: PDB
Description: as §1, §2, §3, §4, §5

[4] = system: Pseudomonas aeruginosa ATCC #15442; conditions: 1/10 TSB
Description: as §1, with “Contact time for the bacteria was 24 and 48 hours, yeast was 48 and 72 hrs, and 3 and 7 days for mold.” left out
as §2, §3, §4, §5

Structure (SMILES): Cl/C=C\C[N+]12CN3CN(CN(C3)C1)C2.[Cl-] [CTAC, cis-1-(3-chloroallyl)-3,5,7-triaza-1-azoniaadamantane chloride]
MIC ([1]; A: Surf. D, B: CTAC, S. aureus ATCC# 6538, 24 hrs, 1/10 TSB, inoculum 1.808E+05, read-out: CB (MIC of compound B acting alone)): 300 µg/mL
MIC ([1]; A: Surf. E, B: CTAC, S. aureus ATCC# 6538, 24 hrs, 1/10 TSB, inoculum 1.8E+06, read-out: CB (MIC of compound B acting alone)): 200 µg/mL
MIC ([2]; ATCC10203, 48 h, A: Surf. D, B: CTAC, C. albicans ATCC#10203, 48 hrs, inoculum 5.726E+05 CFU/ml, read-out: CB (MIC of compound B acting alone)): 1000 µg/mL
MIC ([2]; ATCC10203, 48 h, A: Surf. E, B: CTAC, C. albicans ATCC 10203, 48 hrs, inoculum 1.808E+05, read-out: CB (MIC of compound B acting alone)): 3000 µg/mL
MIC ([3]; ATCC16404, A: Surf. D, B: CTAC, A. niger ATCC#16404, 3rd day, inoculum 1.156E+06, read-out: CB (MIC of compound B acting alone)): 1000 µg/mL
MIC ([4]; ATCC15442, 72 h, A: Surf. A, B: CTAC, P. aeruginosa ATCC#15442, 3rd Day, inoculum 1.156E+06, read-out: CB (MIC of compound B acting alone)): 600 µg/mL

Structure (SMILES): CC1(C)COCN1 [DMO, 4,4-dimethyloxazolidine]
MIC ([1]; A: Surf. D, B: 1135, S. aureus ATCC#6538, 24 hrs, 1/10 TSB, inoculum 1.16E+08, read-out: CB (MIC of compound B acting alone)): 80 µg/mL
MIC ([1]; A: Surf. E, B: DMO, ATCC# 6538, 24 hrs, 1/10 TSB, inoculum 1.80E+06 CFU/ml, read-out: CB (MIC of compound B acting alone)): 80 µg/mL
MIC ([1]; read-out: CB (MIC of compound B acting alone)): 50 µg/mL
MIC ([2]; ATCC10203, 48 h, A: Surf. E, B: DMO, C. albicans ATCC#10203, 48 hrs, inoculum 1808E+06, read-out: CB (MIC of compound B acting alone)): 1000 µg/mL
MIC ([2]; ATCC 10203 / ATCC 10231, 48 h, A: Surf. D, B: DMO, C. albicans ATCC#10231, 48 hrs, inoculum 5.726E+05 CFU/ml, read-out: CB (MIC of compound B acting alone)): 1000 µg/mL
MIC ([2]; ATCC 10203 / ATCC 10231, A: Surf. A, B: DMO, C. albicans ATCC#10231, 3rd Day, inoculum 1.156E+06 CFU/ml, read-out: CB (MIC of compound B acting alone)): 1000 µg/mL
MIC ([3]; ATCC16404, A: Surf. A, B: DMO, A. niger ATCC#16404, 3rd Day, inoculum 1.156E+06 CFU/ml, read-out: CB (MIC of compound B acting alone)): 60 µg/mL
MIC ([3]; ATCC16404, A: Surf. D, B: DMO, A. niger ATCC# 16404, 3rd day, inoculum 1.156E+06, read-out: CB (MIC of compound B acting alone)): 400 µg/mL
MIC ([3]; ATCC16404, A: Surf. E, B: DMO, A. niger ATCC#16404, 3rd Day, inoculum 1.56E+06 CFU/ml, read-out: CB (MIC of compound B acting alone)): 800 µg/mL
MIC ([4]; ATCC15442, 24 h, A: Surf. A, B: DMO, P. aeruginosa ATCC#15442, 24 hrs, inoculum 8.134+07 CFU/ml, read-out: CB (MIC of compound B acting alone)): 80 µg/mL

MIC ([1]; A: Surf. E, B: TrisNitro, S. aureus ATCC# 6538, 24 hrs, 1/10 TSB, inoculum 1.808E+06 CFU/ml, read-out: CB (MIC of compound B acting alone)): 500 µg/mL
MIC ([4]; ATCC15442, 24 h, A: Surf. D, B: TrisNitro, Ps. aeruginosa ATCC#15442, 24 hrs, inoculum 1.16E+08, read-out: CB (MIC of compound B acting alone)): 800 µg/mL
MIC ([4]; ATCC15442, 24 h, A: Surf. E, B: TrisNitro, Ps. aeruginosa ATCC#15442, 24 hrs, inoculum 5.727E+07 CFU/ml, read-out: CB (MIC of compound B acting alone)): 1000 µg/mL
Structure (SMILES): O=[N+]([O-])C(CO)(CO)CO [Tris Nitro, tris(hydroxymethyl)nitromethane]
